Tested on: cardiac P2X receptor
Experiment: Whole-cell voltage clamp of P2 agonist-induced current in WT ventricular myocytes
Format: cell-based, mouse
Description: Mice displaying the CSQ model of severe cardiomyopathy and heart failure were bred and maintained by methods known in the art. The CSQ transgenic (TG) mice were originally provided by Dr. Larry Jones (Krannert Institute of Cardiology, Indiana University School of Medicine, Indiana), and developed hypertrophy followed by a lethal heart failure phenotype with death near the age of 3 months. Ventricular myocytes were obtained from 3-month old wild type (WT) and CSQ mice of either sex (26 WT, 47 TG) by an enzymatic dissociation procedure. Briefly, the hearts were rapidly excised from mice that had been anesthetized with pentobarbital and treated with 1000 Units of heparin. The aorta was cannulated and the heart perfused in a Langendorff apparatus with oxygenated (95% O2/5% CO2) Ca^2+-free solution (37° C.) for 5 minutes at a rate of 2.5 ml/min. The solution composition was: 126 mM NaCl, 4.4 mM KCl, 1.0 mM MgCl2, 18 mM NaHCO3, 11 mM Glucose, 4 mM HEPES, and 3 mM BDM (2,3-butanedione monoxime), (pH 7.3 adjusted with NaOH). Thereafter, the perfusing solution was changed to that containing 25 μM CaCl2 and liberase (70 μg/ml, Roche Molecular Biochemicals, Inc.) for 8-10 minutes. Cells were sedimented by gravity for 10-15 minutes and the pellet was resuspended in 200 μM Ca^2+-containing Tyrode's solution (containing 3 mM BDM), allowed to settle for 30 minutes at room temperature, and suspended with Tyrode's solution containing: 135 mM NaCl, 5.4 mM KCl, 1.0 mM CaCl2, 1.0 mM MgCl2, 10 mM HEPES and 10 mM dextrose (pH 7.4 adjusted with NaOH). The experiments were carried out at room temperature (22-23° C.) and were completed within 4-6 hours after myocyte isolation.
The whole cell patch-clamp technique was used for these experiments. Electrodes were prepared from borosilicate glass pipettes (1.2 mm i.d.) with a two step pulling procedure and filled with pipette solution. The pipette was connected via an Ag—AgCl wire to the head stage of an amplifier (List EPC-7, Medical Systems, Greenvale, N.Y.) controlled by a computer and Axon pClamp™ software. For voltage clamp experiments, the electrodes were filled with a solution containing: 135 mM cesium aspartate, 5 mM NaCl, 5 mM Mg2ATP, 10 mM HEPES, and 10 mM EGTA (pH 7.3 adjusted with CsOH) with or without 2 mM GDPβS. Electrode resistances were 2-4 MΩ. As soon as electrical contact was established, the superfusion medium was changed to a modified Tyrode's solution (5.4 mM KCl was omitted and 10 mM CsCl and 5 μM ouabain were added to Tyrode's solution to block K^+ currents and the Na/K pump current, respectively). In quantifying the P2 agonist-induced current, the Tyrode's solution contained the indicated concentration of each agent. In studying the effect of a P2 receptor antagonist, both agonist and antagonist were co-applied at the indicated concentrations. The voltage clamp protocol used was a ramp voltage protocol from −100 mV holding potential to +50 mV. The ramp protocol was applied to cells at 20 s intervals for 1 minute. Three current traces from −100 mV to 50 mV were averaged to construct the I-V relationship.

SMILES: Nc1nc(Cl)nc2c1ncn2C1[C@H]2C[C@@]2(COP(=O)(O)O)[C@@H](O)[C@H]1O (stereo partly drawn) [MRS2339, (1′S,2′R,3′S,4′R,5′S)-4-(6-amino-2-chloro-9H-purin-9-yl)-1-[phosphoryloxymethyl]bicyclo[3.1.0]hexane-2,3-diol]
- Effect of GDPβS on MRS2339-evoked current density (at +50 mV): no difference
- MRS2339-evoked current density in the absence of GDPβS (at −100 mV): −0.73±0.15 pA/pF
- MRS2339-evoked current density with GDPβS (at −100 mV): −0.66±0.10 pA/pF

— patent US8410078B2, “Composition and methods to treat cardiac diseases” (University of Connecticut, priority 2006, dated 2013)
